Square brackets hold non-standard residues; d marks the D form. Peptide text beside a SMILES is read from it. * marks the point of attachment. Nle = CCCC[C@H](N)C(=O)O; Nva = CCC[C@H](N)C(=O)O; Cbz = O=C(OCc1ccccc1)*
Tests used:
[1] = tested on: ovalbumin degradation; conditions: Rock et al., cited from earlier work; for IC50: read-out: concentration causing 50% inhibition of ovalbumin degradation
[2] = biological target: T1, 20S proteasome (Homo sapiens, UniProt P28074); conditions: cited from earlier work
T1 sequence (P28074 60-263): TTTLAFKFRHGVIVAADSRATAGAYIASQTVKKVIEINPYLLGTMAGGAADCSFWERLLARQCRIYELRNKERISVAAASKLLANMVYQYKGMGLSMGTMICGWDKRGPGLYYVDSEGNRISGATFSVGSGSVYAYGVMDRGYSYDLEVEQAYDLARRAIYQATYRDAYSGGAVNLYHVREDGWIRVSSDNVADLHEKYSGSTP

[3] = tested on: p27 inhibitor of cyclin-dependent kinases; conditions: cited from earlier work
[4] = tested on: human E12; test: Pulse-chase analysis of E12 degradation in COS7 cells treated with proteasome/protease inhibitors; type: cell-based; conditions: 60 min pulse, 3 hour chase
Experimental: FIG. 2 is a bar graph representing the relative expression of E12 after treatment with the proteasome inhibitor MG132 and the protease inhibitor leupeptin, as follows. COS cells were electroporated with a human E12 expression plasmid. After electroporation (48 hours), cells were treated with either DMSO (a diluent for MG132), 50 μM MG132, or 1 μg/ml leupeptin for 1 hour. The cells were then pulse-chased with [^35S] methionine and the cell extracts were immunoprecipitated with anti-E12 antibody and analyzed by SDS-PAGE fluorography. Inhibitors were present throughout the entire pulse-chase period.
Cells in 100 mm dishes (either transfected cells 48 hours after transfection or stable cell lines at about 80% confluence) were starved in Met-free DMEM (supplemented with 5% dialyzed fetal bovine serum) for 60 minutes at 37° C. Cells were then pulse-labeled at 37° C. with 100 μCi/ml [^35S]met for 60 minutes at 37° C. Cells were chased in warm DMEM supplemented with 100 μg/ml Met. For the proteasome inhibitor experiment, the inhibitor MG132 […] was added 1 hour before pulse-chase and was present throughout the entire period. […] Incorporation of ^35S into the total protein pool was determined by trichloroacetic acid (TCA) precipitation. […] The bands were measured using a PhosphorImager (Molecular Dynamics). […]

[5] = tested on: NF-kB precursor protein p105; conditions: cited from earlier work

Structure (SMILES) | IC50 [1] | inhibition of the chymotryptic site on the 20S proteasome [2] | effect on degradation of the p27 inhibitor of cyclin-dependent kinases [3] | effect on processing of the NF-kB precursor protein p105 [5] | also measured
CSCC[C@@H](C=O)NC(=O)[C@H](CC(C)C)NC(=O)[C@H](CC(C)C)NC(C)=O [LLM, N-acetyl-L-leucinyl-L-leucinyl-methional] (Ac-Leu-Leu-Met-aldehyde) | > 100000 nM | – | – | – | –
CC(C)C[C@@H](C=O)NC(=O)[C@H](CC(C)C)NC(=O)[C@H](CC(C)C)NC(=O)OCc1ccccc1 [MG132] (Cbz-Leu-Leu-Leu-aldehyde) | – | potent inhibitors | inhibit the degradation | block the processing | E12 protein stability (effect on E12 degradation) ([4]; 50 μM MG132 added 1 hour before and present throughout): stabilized
CCCC[C@@H](C=O)NC(=O)[C@H](CC(C)C)NC(=O)[C@H](CC(C)C)NC(C)=O [MG101] (Ac-Leu-Leu-[Nle]-aldehyde) | – | potent inhibitors | inhibit the degradation | block the processing | –
CCC[C@@H](C=O)NC(=O)[C@H](CC(C)C)NC(=O)[C@H](CC(C)C)NC(=O)OCc1ccccc1 [MG115, N-carbobenzoxyl-L-leucinyl-L-leucinyl-L-norvalinal] (Cbz-Leu-Leu-[Nva]-aldehyde) | 400 nM | potent inhibitors | – | – | potency relative to LLnL (ovalbumin proteolysis) [1]: approximately 5 fold
CC(=O)N[C@@H](CC(C)C)C(=O)N[C@@H](CC(C)C)C(=O)N[C@H](C=O)CCCNC(=N)N [leupeptin] | – | – | – | – | E12 protein stability (effect on E12 degradation) ([4]; leupeptin 1 μg/ml added 1 hour before and present throughout): no effect

Reference: patent US20020128189A1, “Ubiquitination of the transcription factor E2A” (President and Fellows of Harvard College, a Massachusetts …, priority 1996, published 2002)
